# Source: paper PMC11314063, “Inhibition of DNA Topoisomerase Ι by Flavonoids and Polyacetylenes Isolated from Bidens pilosa L” (Molecules, 2024)
# Read-outs that look alike come from different tables or passages of the source.
# Assays:
# [1] = system: HepG2; assay: SRB cytotoxicity assay, HepG2; assay type: cell-based; conditions: Homo sapiens, read-out: IC50 Cytotoxicity HepG2
# Excerpt: (§1) The cell lines MDA-MB-231 (No. TCHu227), A549 (No. TCHu150), and HepG2 (No. TCHu72) were obtained from the Cell Bank/Stem Cell Bank, Chinese Academy of Sciences (Shanghai, China). The cell lines DLD-1 (No. CC0507) and HCT116 (No. CC0506) were obtained from the Cell Bank of Cellcook Biotech Co., Ltd. (Guangzhou, China). Cell line HL-7702 (No. BNCC338358) was obtained from Bena Culture Collection (Zhengzhou, China).
# (§2) The human cancer cell lines MDA-MB-231 (breast adenocarcinoma), DLD-1 (colorectal adenocarcinoma), A549 (lung epithelial carcinoma), HCT116 (colorectal adenocarcinoma), HepG2 (hepatocellular carcinoma), and human hepatocyte HL-7702 were cultured in Dulbecco’s modified eagle medium (DMEM, Biological Industries, Beit Haemek, Israel) containing 10% (v/v) fetal bovine serum (FBS, Biological Industries, Beit Haemek, Israel) at 37 °C in a humidified incubator (ThermoFisher, Carlsbad, CA, USA) with a 5% CO2 atmosphere.
# [2] = SRB cytotoxicity assay, hepatocyte HL-7702; assay type: cell-based, human; conditions: SRB assay, 48 h, human hepatocyte, mean ± SD, read-out: IC50 Cytotoxicity HL-7702
# Excerpt: as §1, §2
# [3] = system: DLD-1; assay: SRB cytotoxicity assay, DLD-1; assay type: cell-based; conditions: Homo sapiens, read-out: IC50 Cytotoxicity DLD-1
# Excerpt: as §1, §2
# [4] = system: MDA-MB-231; assay: SRB cytotoxicity assay, MDA-MB-231; assay type: cell-based; conditions: Homo sapiens, read-out: IC50 Cytotoxicity MDA-MB-231
# Excerpt: as §1, §2
# [5] = system: A549; assay: SRB cytotoxicity assay, A549; assay type: cell-based; conditions: Homo sapiens, read-out: IC50 Cytotoxicity A549
# Excerpt: as §1, §2
# [6] = system: HCT116; assay: SRB cytotoxicity assay, HCT116; assay type: cell-based; conditions: Homo sapiens, read-out: IC50 Cytotoxicity HCT116
# Excerpt: as §1, §2
# [7] = molecular target: T1, DNA Topo I (Homo sapiens, UniProt P11387); assay: Topo I inhibition assay (DNA relaxation assay); assay type: biochemical; conditions: for IC50: DNA relaxation assay, pBR322, mean ± SD; for inhibition at 400 µM: read-out: percentage inhibition on Topo I activity; for inhibition at 400 µM / percentage inhibition on Topo I activity: at 400 μM
# T1 construct: purchased ThermoFisher, Waltham, MA, USA
# T1 sequence (P11387 1-765): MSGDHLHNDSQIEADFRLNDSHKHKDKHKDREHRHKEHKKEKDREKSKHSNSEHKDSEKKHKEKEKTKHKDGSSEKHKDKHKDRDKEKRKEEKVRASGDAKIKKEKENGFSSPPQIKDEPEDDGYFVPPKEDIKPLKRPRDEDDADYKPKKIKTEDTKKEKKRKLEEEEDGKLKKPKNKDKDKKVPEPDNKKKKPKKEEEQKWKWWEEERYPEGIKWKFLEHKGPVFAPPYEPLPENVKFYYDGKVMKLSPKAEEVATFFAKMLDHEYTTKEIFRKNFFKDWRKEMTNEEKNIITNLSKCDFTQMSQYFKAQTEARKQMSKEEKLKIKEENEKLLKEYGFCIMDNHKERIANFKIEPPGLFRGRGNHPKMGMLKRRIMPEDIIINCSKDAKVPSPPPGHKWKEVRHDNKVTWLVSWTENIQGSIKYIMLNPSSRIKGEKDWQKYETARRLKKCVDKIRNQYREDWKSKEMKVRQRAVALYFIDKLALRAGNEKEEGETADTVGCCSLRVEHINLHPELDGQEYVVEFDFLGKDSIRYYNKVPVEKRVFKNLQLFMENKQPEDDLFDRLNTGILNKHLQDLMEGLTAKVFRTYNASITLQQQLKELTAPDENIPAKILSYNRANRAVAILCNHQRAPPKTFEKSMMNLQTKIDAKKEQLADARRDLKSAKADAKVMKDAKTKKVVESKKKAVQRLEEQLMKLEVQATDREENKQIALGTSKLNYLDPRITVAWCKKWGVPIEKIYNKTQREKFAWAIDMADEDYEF
# Protocol: The DNA relaxation assay was adopted to investigate the compounds’ inhibitory activities on Topo I. Different concentrations of the compounds, dissolved and diluted in DMSO, were added into the relaxation buffer (50 mM Tris, pH 7.5, 50 mM KCl, 10 mM MgCl2, 0.1 mM EDTA, 0.5 Mm dithiothreitol, and 0.05 mg/mL bovine serum albumin) containing 0.2 U Topo I (ThermoFisher, Waltham, MA, USA) and incubated at room temperature for 10 min. After that, 500 ng supercoiled pBR322 plasmid DNA (ThermoFisher, Waltham, MA, USA) was added and then incubated at 37 °C for another 30 min. Finally, the reactions were stopped with a stopping solution (5% sodium dodecyl sulfate, 0.0025% bromophenol blue, and 25% glycerol), and the mixtures were applied onto 0.8% agarose gel and subjected to electrophoresis for 1.5 h in Tris-Acetate-EDTA buffer. After being stained with GelRed (Biotium, Fremont, CA, USA), the gel was imagined with the imaging system (Biotop, Shanghai, China). […] The band density of the supercoiled DNA was quantified by the ImageJ software (version 1.53a, National Institutes of Health, Bethesda, MD, USA), and the inhibition activity is expressed as the percentage inhibition and calculated by formula: Inhibition % = [(A − B)/(C − B)] × 100%, where A is the band density of the tested samples, B is the band density of the negative control, and C is the band density of the blank control.
# [8] = HepG2, SRB assay, 48 h, mean ± SD
# [9] = DLD-1, SRB assay, 48 h, mean ± SD
# [10] = MDA-MB-231, SRB assay, 48 h, mean ± SD
# [11] = A549, SRB assay, 48 h, mean ± SD
# [12] = HCT-116, SRB assay, 48 h, mean ± SD
SMILES,IC50 [7] [µM],inhibition at 400 µM [7] [%],percentage inhibition on Topo I activity [7],"IC50 [1, 8] [µM]",IC50 at 48 h ([2]; HL-7702 hepatocyte cell line) [µM],"IC50 [3, 9] [µM]","IC50 [4, 10] [µM]","IC50 [5, 11] [µM]","IC50 [6, 12] [µM]","IC50 ([1]; HepG2, 48 h) [µM]",IC50 at 48 h [2] [µM],"IC50 ([3]; DLD-1, 48 h) [µM]","IC50 ([4]; MDA-MB-231, 48 h) [µM]","IC50 ([5]; A549, 48 h) [µM]","IC50 ([6]; HCT-116, 48 h) [µM]"
"COc1ccc(/C=C/C(=O)c2ccc(O[C@@H]3O[C@H](CO)[C@@H](O)[C@H](O)[C@H]3O)c(O[C@@H]3O[C@H](CO)[C@@H](O)[C@H](O)[C@H]3O)c2O)cc1O [Compound 1, 4-O-methylokanin 3′,4′-di-O-β-D-glucopyranoside]",394 ± 39,–,–,> 200,> 200,> 200,> 200,> 200,> 200,–,–,–,–,–,–
COc1cc(O)c2c(=O)c(OC)c(-c3ccc(O)c(O)c3)oc2c1 [Compound 4],> 400,–,no inhibition,3.05 ± 1.31,19.6 ± 0.62,7.14 ± 0.35,> 200,8.16 ± 4.04,4.52 ± 0.04,–,–,–,–,–,–
COc1ccc(/C=C/C(=O)c2ccc(O)c(O[C@@H]3O[C@H](CO)[C@@H](O)[C@H](O)[C@H]3O)c2O)cc1O [Compound 2],329 ± 58.8,–,–,> 200,> 200,> 200,> 200,> 200,> 200,–,–,–,–,–,–
CC#CC#CC#C/C=C/CCC(CCO)O[C@@H]1O[C@H](CO)[C@@H](O)[C@H](O)[C@H]1O (stereo partly drawn) [Compound 25],> 400,–,–,–,–,–,–,–,–,> 200,> 200,187 ± 17.4,> 200,174 ± 12.3,162 ± 15.8
COc1cc(-c2oc3cc(O)c(OC)c(O)c3c(=O)c2O)ccc1O [Compound 8],190 ± 22.1,–,–,> 200,> 200,187 ± 48.6,> 200,178 ± 4.38,> 200,–,–,–,–,–,–
COc1cc(OC)cc(-c2oc3cc(O[C@@H]4O[C@H](CO)[C@@H](O)[C@H](O)[C@H]4O)cc(O)c3c(=O)c2O)c1 [Compound 10],> 400,–,no inhibition,> 200,114.8 ± 0.55,63 ± 4.08,> 200,> 200,59.3 ± 4.56,–,–,–,–,–,–
COc1ccc(-c2oc3c(O)c(OC)c(O[C@@H]4O[C@H](CO)[C@@H](O)[C@H](O)[C@H]4O)cc3c(=O)c2OC)cc1O [Compound 9],> 400,–,no inhibition,> 200,126 ± 7.08,50.5 ± 0.31,> 200,135 ± 32.3,87.7 ± 15.3,–,–,–,–,–,–
COc1c(O[C@@H]2O[C@H](CO)[C@@H](O)[C@H](O)[C@H]2O)cc2oc(-c3ccc(O)c(O)c3)c(OC)c(=O)c2c1O [Compound 12],> 400,26.4,–,> 200,> 200,> 200,> 200,> 200,> 200,–,–,–,–,–,–
"CC[C@@]1(O)C(=O)OCc2c1cc1n(c2=O)Cc2cc3ccccc3nc2-1 [CPT, Camptothecin, reference compound]",–,–,–,1.71 ± 0.47,2.11,17 ± 3.82,20.4 ± 3.7,4.41 ± 1.11,12.1 ± 5.74,–,–,–,–,–,–

# The next lines start with results.
IC50 [7] [µM],inhibition at 400 µM [7] [%],percentage inhibition on Topo I activity [7],SMILES,"IC50 [1, 8] [µM]",IC50 at 48 h ([2]; HL-7702 hepatocyte cell line) [µM],"IC50 [3, 9] [µM]","IC50 [4, 10] [µM]","IC50 [5, 11] [µM]","IC50 [6, 12] [µM]","IC50 ([1]; HepG2, 48 h) [µM]",IC50 at 48 h [2] [µM],"IC50 ([3]; DLD-1, 48 h) [µM]","IC50 ([4]; MDA-MB-231, 48 h) [µM]","IC50 ([5]; A549, 48 h) [µM]","IC50 ([6]; HCT-116, 48 h) [µM]"
> 400,23,–,OCC(O)CC#CC#Cc1ccccc1 (stereo not drawn) [Compound 21],> 200,> 200,> 200,> 200,187 ± 6.63,> 200,–,–,–,–,–,–
> 400,–,no inhibition,COc1ccc([C@@H]2CC(=O)c3c(O)cc(O[C@@H]4O[C@H](CO)[C@@H](O)[C@H](O)[C@H]4O)cc3O2)cc1O [Compound 17],> 200,> 200,> 200,> 200,> 200,> 200,–,–,–,–,–,–
301 ± 34.9,–,–,"OC[C@H](O)CC#CC#Cc1ccc(O)cc1 [Compound 20, (R)-7-(4-hydroxyphenyl) hepta-4,6-diyne-1,2-diol]",> 200,> 200,> 200,> 200,194 ± 12.8,174 ± 2.47,–,–,–,–,–,–
> 400,–,–,CC#CC#CC#C/C=C/CCC(CO)O[C@@H]1O[C@H](CO)[C@@H](O)[C@H](O)[C@H]1O (stereo partly drawn) [Compound 26],> 200,> 200,> 200,> 200,188 ± 15.8,> 200,–,–,–,–,–,–
> 400,46.7,–,O=C1/C(=C/c2ccc(O)c(O)c2)Oc2c1ccc(O[C@@H]1O[C@H](CO)[C@@H](O)[C@H](O)[C@H]1O)c2O [Compound 18],> 200,> 200,> 200,> 200,> 200,> 200,–,–,–,–,–,–
> 400,–,no inhibition,COc1ccc(-c2oc3cc(O[C@@H]4O[C@H](CO)[C@@H](O)[C@H](O)[C@H]4O)c(OC)c(O)c3c(=O)c2OC)cc1O [Compound 14],> 200,> 200,> 200,> 200,> 200,> 200,–,–,–,–,–,–
> 400,15.2,–,CC#CC#CC#Cc1ccccc1 [Compound 23],168 ± 10.8,198.8 ± 0.86,123 ± 8.76,140 ± 5.53,130 ± 4.93,70.9 ± 3.73,–,–,–,–,–,–
> 400,–,–,CC#CC#CC#CC#CCCC(CO)O[C@@H]1O[C@H](CO)[C@@H](O)[C@H](O)[C@H]1O (stereo partly drawn) [Compound 27],> 200,> 200,144 ± 7.36,164 ± 11.7,188 ± 14.9,112 ± 6.59,–,–,–,–,–,–
47.5 ± 15.3,–,–,CC(=O)OC[C@H]1O[C@@H](Oc2ccc3c(c2O)O/C(=C\c2ccc(O)c(O)c2)C3=O)[C@H](O)[C@@H](O)[C@@H]1O [Compound 19],> 200,> 200,> 200,> 200,> 200,> 200,–,–,–,–,–,–
178 ± 45.7,–,–,CC(O)CC#CC#Cc1ccccc1 (stereo not drawn) [Compound 22],179 ± 3.62,161 ± 2.18,142 ± 10.2,146 ± 7.17,125 ± 23.4,118 ± 5.7,–,–,–,–,–,–
